The data set has as its target IRF4. The conditions noted are these: ASO.

Where “and” joins values, the source holds several entries; their conditions need not be identical. Equal entries are not always repeated. After the bases stand the sugars from the 5' end (letter, count) and the backbone: PS all phosphorothioate, else s phosphorothioate and o phosphodiester by linkage. Methylation of C is not given here. e = 2'-O-(2-methoxyethyl) (MOE); k = constrained ethyl (cEt); d = 2'-deoxy (DNA)

Regarding ACAATACTGTAAGGGC (sugars k3 d10 k3, PS), the target mRNA inhibition (SK-MEL-28, 4 µM) is 75% and 68%.

Turning to CTAGAGGTGCCTTCTT (sugars k3 d10 k3, PS), the target mRNA inhibition (SK-MEL-28, 4 µM) was determined as 26%.

On to TCCAACCCTAGATAAC (sugars k3 d10 k3, PS), for which the target mRNA inhibition (MM.1R, 1 µM) was -5%.

TCACTATTAAACAGCA (sugars k3 d10 k3, PS): the target mRNA inhibition (SK-MEL-28, 4 µM) is 16%.

As to CCTCCATTCTAACAGA (sugars k3 d10 k3, PS), under “SK-MEL-28, 4 µM”, the target mRNA inhibition was -18%.

GAAATATACCAGCTCA (sugars k3 d10 k3, PS): the target mRNA inhibition (SK-MEL-28, 4 µM) was 61%.

Consider TGGAACTCTAGTGTCC (sugars k3 d10 k3, PS), for which the target mRNA inhibition (SK-MEL-28, 4 µM) is 2%.

As for GTAAACTGCCTTAGGG (sugars k3 d10 k3, PS), the target mRNA inhibition (SK-MEL-28, 4 µM) turned out to be 44%.

Consider “TGATGTGATAGCTGAG (sugars kkdddddddddkdkdk, PS)”, for which, under “MM.1R, 1 µM”, the target mRNA inhibition was determined as 14%.

Take ACAGATGGCATGCGAA (sugars k3 d10 k3, PS): the target mRNA inhibition (MM.1R, 1 µM) came to 19%.

On to CAACAGAGCTGAGAGT (sugars k3 d10 k3, PS), for which the target mRNA inhibition (SK-MEL-28, 4 µM) is 20%.

TATTACTCTTAGGCAC (sugars k3 d10 k3, PS): the target mRNA inhibition (SK-MEL-28, 4 µM) amounted to 44%.

For the sequence AGCTTACTGTGATTCT (sugars k3 d10 k3, PS), the target mRNA inhibition (MM.1R, 1 µM) was determined as 13%.

GCAGCTTCTCAATGTT (sugars k3 d10 k3, PS): for the setting “SK-MEL-28, 4 µM”, the target mRNA inhibition was 43%.

CATCATGTAGTTGTGA (sugars k3 d10 k3, PS): where the note is “SK-MEL-28, 4 µM”, the target mRNA inhibition is 41%.

For “TGCTTGAGGTTTTCCT (sugars kkddddddddddkeke, PS)”, the target mRNA inhibition (MM.1R, 1 µM) was 33%.

In the case of GTCTAGCTGGGTTTTC (sugars k3 d10 k3, PS), the target mRNA inhibition (SK-MEL-28, 4 µM) amounted to 63%.

With TAGCATTATCTACCTC (sugars k3 d10 k3, PS), the target mRNA inhibition (SK-MEL-28, 4 µM) was 66%.

Turning to GGACAGACCAGGATTC (sugars k3 d10 k3, PS), the target mRNA inhibition (SK-MEL-28, 4 µM) was 25%.

In the case of CAAAACTACTATTGTG (sugars k3 d10 k3, PS), the target mRNA inhibition (SK-MEL-28, 4 µM) worked out at 23%.

As for GCATAAAAGGTTCCTG (sugars k4 d8 k4, PS), the target mRNA inhibition (MM.1R, 0.074 µM) came out at 0%; the target mRNA inhibition (MM.1R, 0.222 µM) is -3%; the target mRNA inhibition (MM.1R, 0.666 µM) was -7%; the target mRNA inhibition (MM.1R, 2 µM) was 3%; the target mRNA inhibition (SK-MEL-28, 0.185 µM) is 4% and 9% and 17%; the target mRNA inhibition (SK-MEL-28, 4 µM) is 47%. The target mRNA inhibition is 34% and 37% and 50% (SK-MEL-28, 5 µM); 75% and 72% and 89% (SK-MEL-28, 15 µM).

Regarding AAGTGGAGGTCTTTGG (sugars k3 d10 k3, PS), where the note is “SK-MEL-28, 4 µM”, the target mRNA inhibition stood at 66%.

For the sequence TTCGAGAGAAATATAC (sugars k3 d10 k3, PS), the target mRNA inhibition (MM.1R, 1 µM) was 22%.

Consider CTGCTCACTAAGCTTG (sugars k3 d10 k3, PS), for which the target mRNA inhibition runs as follows: (SK-MEL-28, 0.185 µM) 6% and 5% and -1%; (SK-MEL-28, 4 µM) 73%; (SK-MEL-28, 15 µM) 78% and 80% and 94%.

For the sequence “GAAGTTTACACTGGAT (sugars kddddddddddkekek, PS)”, the target mRNA inhibition (MM.1R, 1 µM) is 27%.

For the sequence AGCCAAAGTGACTTAA (sugars k3 d10 k3, PS), under “SK-MEL-28, 4 µM”, the target mRNA inhibition was 58%.

Regarding “GACACTTTTAGAGAGG (sugars k3 d9 k3 e1, PS)”, under “MM.1R, 1 µM”, the target mRNA inhibition was 24%.

In the case of “GCACATCAATGTTTTA (sugars kkddddddddddkeke, PS)”, the target mRNA inhibition (MM.1R, 1 µM) is 49% and 50%.

With TTGAGGTTTTCCTAAA (sugars k3 d10 k3, PS), the target mRNA inhibition (SK-MEL-28, 4 µM) worked out at 29%.

On to AGTCACGCAATGGCAA (sugars k3 d10 k3, PS), for which the target mRNA inhibition (SK-MEL-28, 4 µM) worked out at 50%.

On to CATTTACTGTTACCGA (sugars k3 d10 k3, PS), for which the target mRNA inhibition is, setting by setting: (MM.1R, 0.074 µM) -14%; (MM.1R, 0.222 µM) 0%; (MM.1R, 0.666 µM) -9%; (MM.1R, 2 µM) 10%; (SK-MEL-28, 4 µM) 79%.

Turning to GTACAGTCCACTCCAC (sugars k3 d10 k3, PS), the target mRNA inhibition (SK-MEL-28, 4 µM) came to 10%.

AAGGTTCCTGTCACCT (sugars k3 d10 k3, PS): under “SK-MEL-28, 4 µM”, the target mRNA inhibition is -2%.

For TGGATTGCTGATGTGT (sugars k3 d10 k3, PS), the target mRNA inhibition by setting is: (MM.1R, 0.0625 µM) 45%; (MM.1R, 0.25 µM) 58%; (MM.1R, 1 µM) 71% and 75%; (MM.1R, 4 µM) 90%.

Consider “AAGCATTTTATCATCC (sugars k3 d9 k3 e1, PS)”, for which the target mRNA inhibition (MM.1R, 1 µM) is 33%.

As to “TCTATAGTGTTCCAGG (sugars e1 k2 d9 k2 e2, PS)”, the target mRNA inhibition is 22% (MM.1R, 0.074 µM); 33% (MM.1R, 0.222 µM); 52% (MM.1R, 0.666 µM); 58% (MM.1R, 1 µM); 74% (MM.1R, 2 µM).

For the sequence TGTATACCAACGACAG (sugars k3 d10 k3, PS), the target mRNA inhibition (SK-MEL-28, 4 µM) is 58%.

As to “ACCTCAGTTTGTGAAG (sugars kkdddddddddkdkdk, PS)”, the target mRNA inhibition (MM.1R, 1 µM) is -3%.

For the sequence TTAATTATGCAGAAGC (sugars k3 d10 k3, PS), under “SK-MEL-28, 4 µM”, the target mRNA inhibition was 13%.

For CCCTAGGTCATACCCT (sugars k3 d10 k3, PS), the target mRNA inhibition (SK-MEL-28, 4 µM) is 57%.

For the sequence CTTGATAAAGGCTGAA (sugars k3 d10 k3, PS), where the note is “SK-MEL-28, 4 µM”, the target mRNA inhibition was found to be 60%.

Turning to TAAAATGTCACGCCCG (sugars k3 d10 k3, PS), under “MM.1R, 1 µM”, the target mRNA inhibition was found to be 0%.

As for AGTGTAACTGAGGACT (sugars k3 d10 k3, PS), the target mRNA inhibition (SK-MEL-28, 4 µM) was -7%.

GGCAATGGAGTCTCGC (sugars k3 d10 k3, PS): for the setting “SK-MEL-28, 4 µM”, the target mRNA inhibition came out at 50%.

On to CACAAGCAGTGATGTC (sugars k3 d10 k3, PS), for which the target mRNA inhibition (SK-MEL-28, 4 µM) was found to be 60%.

For GAGTTGTACAGGACAG (sugars k3 d10 k3, PS), where the note is “MM.1R, 1 µM”, the target mRNA inhibition is 51% and 52%.

For TACCATATTGGAAACC (sugars k3 d10 k3, PS), the target mRNA inhibition (SK-MEL-28, 4 µM) worked out at 48%.

Regarding “TGTGCTTGCCAAGCCT (sugars kddddddddddkekek, PS)”, the target mRNA inhibition (MM.1R, 1 µM) was -1% and 3%.

Consider GCTTCAAGACAGGTCT (sugars k3 d10 k3, PS), for which, for the setting “MM.1R, 1 µM”, the target mRNA inhibition was determined as 29%.

Take TAACCGGTAGAGTGAG (sugars k3 d10 k3, PS): under “MM.1R, 1 µM”, the target mRNA inhibition amounted to 27%.

Consider GGCCACATTAGCAATT (sugars k3 d10 k3, PS), for which the target mRNA inhibition (MM.1R, 1 µM) was 0%.

With TGCCAATCAGATGTCA (sugars k3 d10 k3, PS), under “SK-MEL-28, 4 µM”, the target mRNA inhibition turned out to be 22%.

In the case of GCCAAACAAACAGAGG (sugars k3 d10 k3, PS), where the note is “SK-MEL-28, 4 µM”, the target mRNA inhibition was found to be 22%.

For GTCCACATACCTGAAA (sugars k3 d10 k3, PS), the target mRNA inhibition (MM.1R, 1 µM) worked out at 8%.

Take GAGCAAATTGAGACCA (sugars k3 d10 k3, PS): the target mRNA inhibition (SK-MEL-28, 4 µM) worked out at 55%.

Turning to GACAGAAGATCTCTAC (sugars k3 d10 k3, PS), the target mRNA inhibition (SK-MEL-28, 4 µM) amounted to 17%.

Take “CTTGATAAAGGCTGAA (sugars e1 k2 d9 k2 e2, PS)”: the target mRNA inhibition (MM.1R, 1 µM) was 17%.

CAGAAGATCTCTACTG (sugars k3 d10 k3, PS): the target mRNA inhibition (SK-MEL-28, 4 µM) was found to be 12%.

As to TTTACAGCATCTAAGG (sugars k3 d10 k3, PS), the target mRNA inhibition (SK-MEL-28, 4 µM) was determined as 34%.

For AGCAAGTGGAGGTCTT (sugars k3 d10 k3, PS), the target mRNA inhibition (SK-MEL-28, 4 µM) was found to be 63%.

AGCCAAGGAGGCGGGC (sugars k3 d10 k3, PS): the target mRNA inhibition (SK-MEL-28, 4 µM) was -1%.

The record behind these values is the OligoGym collection.
